{"source": "patent US12329457B2", "about": "“Hyperspectral imaging for early detection of Alzheimer's disease” (REGENTS OF THE UNIVERSITY OF MINNESOTA, priority 2011, dated 2025)", "key": {"[1]": {"target": "T1, Aβ^1-42 aggregates (Homo sapiens, UniProt P05067)", "T1 construct": "Aβ1-42, FITC-Aβ1-42 and FITC-scrambled-Aβ1-42 were purchased from American Peptide Company; purchased American Peptide Company (Sunnyvale, CA, USA); host or cells: synthetic peptide added to SH-SY5Y cell cultures", "T1 sequence (P05067 672-713)": "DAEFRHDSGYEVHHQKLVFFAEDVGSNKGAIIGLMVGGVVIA", "experiment": "HSI with Spectral Angle Mapper (SAM) mapping and counting of intracellular amyloid aggregates", "type": "cell-based", "conditions": "HSI imaging coupled with SAM", "procedure": "Cell Culture and Cellular Uptake. The human neuroblastoma cell line, SH-SY-5Y, used in the present study was obtained from American Type Culture Collection (Manassas, VA). The cells were maintained in MEM:F12 (1:1) medium supplemented with 10% FBS, 100 units/mL penicillin and 100 units/mL streptomycin and 1% NEAA (non-essential amino acid). Cells were grown at 37° C. in a humidified atmosphere with 5% CO2/95% air. FITC-Aβ1-42, and FITC-scrambled-Aβ1-42, were added to SHSY5Y cultures for 24 h. […]\n(§1) The images were captured at 40× magnification using ENVI software, which is followed by extraction of spectral curves as described in the next section. The camera captured spectral responses from 400-1000 nm with a maximum readout time of 12 frames per second. […]\nSpectral Angle Mapping Classification Algorithm Among supervised classification methods, a SAM classification algorithm was selected due to its better performance than other classification algorithms for detection of β-amyloid aggregates in unknown samples. […] The spectral angle parameter value as α=0·1 or 0·2 was used for a SAM classifier where α is defined as the angle between testing spectrum vector a, and reference spectrum vector b and is calculated using the following equation: (Also, see FIG. 14, and Siddiqi et al., Cancer, 114(1), 13-21 (2008)."}, "[2]": {"target": "T2, Aβ^1-42 aggregation (Homo sapiens, UniProt P05067)", "T2 construct": "Aβ1-42, FITC-Aβ1-42 and FITC-scrambled-Aβ1-42 were purchased from American Peptide Company; purchased American Peptide Company (Sunnyvale, CA, USA); host or cells: synthetic peptide added to SH-SY5Y cell cultures", "T2 sequence (P05067 672-713)": "as above", "experiment": "HSI spectral signature inhibitor screening in Aβ1-42-treated SH-SY5Y cells", "type": "cell-based", "conditions": "cells co-incubated with inhibitor and Aβ^1-42; rank guanidine, then guanosine, then urea", "procedure": "(§2) Cell Culture and Cellular Uptake. The human neuroblastoma cell line, SH-SY-5Y, used in the present study was obtained from American Type Culture Collection (Manassas, VA). The cells were maintained in MEM:F12 (1:1) medium supplemented with 10% FBS, 100 units/mL penicillin and 100 units/mL streptomycin and 1% NEAA (non-essential amino acid). Cells were grown at 37° C. in a humidified atmosphere with 5% CO2/95% air. FITC-Aβ1-42, and FITC-scrambled-Aβ1-42, were added to SHSY5Y cultures for 24 h. For time-dependence experiments, 250 nM FITC-Aβ1-42 was added to SHSY5Y cells, plated in 4-well Lab-Tek chamber slides (Nunc) and images as well as spectral scans (Cytoviva) were acquired at varying times (0-5 days) after addition of the labeled-Aβ1-42. For dose-dependence experiments, FITC-Aβ1-42 was added at varying concentrations (0-1000 nM) and imaged 24 h thereafter. In some experiments, SH-SY-5Y cells were incubated with FITC-Aβ1-42 for 48 h in the presence and absence of inhibitors or promoters of β-amyloid peptide.\nCytoViva hyperspectral imaging System After each treatment, slides were examined utilizing a CytoViva microscope and hyperspectral imaging system (CytoViva-Hyperspectral Imaging System (HSI), Auburn, AL; see the Cytoviva Hyperspectral Imaging System Manual) mounted on an Olympus BX-41 optical microscope. This system employs a darkfield-based illuminator that focuses a highly collimated light at oblique angles on the sample to obtain images with improved contrast and signal-to-noise ratio. […]\nas §1\n(§3) Acquisition of Spectral Scans from Hyperspectral Image The CytoViva Hyperspectral image analysis software powered by ENVI contains features to aid in the quantification and identification of materials by spectral data analysis. […]"}, "[3]": {"test_system": "APP/PS1 mice", "experiment": "Immunohistochemistry of brain tissue for Aβ load and plaques", "type": "in vivo, mouse", "procedure": "(a) Isolation and analysis of brain tissue. Brains were removed from wild type and Alzheimer's mice and post fixed in Zamboni's fixative (4% paraformaldehyde and 15% picric acid in 0.25 M sodium phosphate, pH 7.5) for 48 h before being cryopreserved in a 30% (wt/vol) sucrose/0.1 sodium phosphate-buffered saline solution. Frozen sections (10 μm) in OCT were cut on a sliding microtome, brought to room temperature and were coverslipped with hardset Vectashield mounting medium with the nuclear stain DAPI (catalogue #H-1500; Vector Laboratories, Burlingame, CA). The whole-mount brain slides were scanned with Cytoviva microscope and spectral signatures were collected from wavelengths in the 400-1000 nm range as described.\n(c) Immunohistochemistry of mouse brain and retina samples. For immunofluorescence studies, brain section slides and retina sample slides were pre-incubated for 1 hour in 5% normal goat serum (NGS) in 1×PBST (1×PBS containing 0.3% Triton X-100) at room temperature. A primary antibody against β-amyloid peptide ((Cell signaling, Cat. #2454) was employed then at a dilution of 1:200 in 1% NGS in 1×PBST. After an overnight incubation at 4° C., the slides were rinsed thrice for 10 min with 1×PBST and then incubated for 2 h in goat anti-rabbit IgG conjugated to Cy3 diluted to 1:1000 in 1% NGS in 1× PBST. The sections were rinsed in PBST thrice for 10 min and in PBS for 5 min. Samples were then dehydrated in ethanol, cleared with methyl salicylate, mounted in DEPEX (Electron Microscopy Science, Poole, UK) and staining of β-amyloid aggregates and plaques was visualized with Cytoviva microscope.\n(§4) Hyperspectral Imaging to follow treatment success in Alzheimer's mice Alzheimer's and wild type mice were treated with a candidate drug, ψ-GSH, three times a week for 12 weeks starting at the age of three to four months. (see More et al., (2012) Restoration of Glyoxalase Enzyme Activity Precludes Cognitive Dysfunction in a Mouse Model of Alzheimer's Disease. ACS Chem. Neurosci., DOI: 10.1021/cn3001679) The study was divided in four groups (10 mice/group). 1. […]"}, "[4]": {"test_system": "APP/PS1 mice", "experiment": "Morris Water maze memory test in APP/PS1 mice", "type": "in vivo, mouse"}, "[5]": {"test_system": "APP/PS1 mice", "experiment": "Retinal HSI spectra to follow treatment in APP/PS1 mice", "type": "in vivo, mouse", "procedure": "(b) Isolation and analysis of retina tissue. Eyes were enucleated from wild type and Alzheimer's mice at the desired age. For whole-mount retinas, eyes were fixed in […] of freshly prepared 4% PFA-PBS at room temperature for 45 minutes. This was followed by washing with ice-cold PBS solution (2 mL) at least five times. The anterior eye portion, cornea, was dissected out under surgical microscope. The iris was then removed followed by the sclera, lens and hyaloid vessels. The isolated retinas were then washed with ice-cold PBS and divided into four quadrants by making four radial incisions. The whole-mounts were prepared by transferring the dissected retinas onto a microscope slide and coverslipped with hardset Vectashield mounting medium with the nuclear stain DAPI. The whole-mount retina slides were scanned with Cytoviva microscope and spectral signatures were collected from wavelengths in the 400-1000 nm range as described before.\nas §4"}, "[6]": {"test_system": "SH-SY5Y cells", "experiment": "HSI spectral signature of cells exposed to Aβ1-42", "type": "cell-based, human", "procedure": "as §2, with “In some experiments, SH-SY-5Y cells were incubated with FITC-Aβ1-42 for 48 h in the presence and absence of inhibitors or promoters of β-amyloid peptide.” left out\nas §1, §3"}}, "data": [{"molecule": "[Zn+2]", "note": "[Zn^2+]", "values": [{"measurement": "number of intracellular amyloid aggregates compared to cells treated with Aβ^1-42 alone", "setting": "[1]", "result": 280, "unit": "%"}]}, {"molecule": "N=C(N)N", "note": "[guanidine, Guanidine]", "values": [{"measurement": "attenuation of amyloid-induced HSI spectral change", "setting": "[2]", "result": "greatest attenuation in HSI spectral change"}, {"measurement": "number of intracellular amyloid aggregates compared to cells treated with Aβ^1-42 alone", "setting": "[1]", "result": 62, "unit": "%"}]}, {"molecule": "Nc1nc2c(ncn2[C@@H]2O[C@H](CO)[C@@H](O)[C@H]2O)c(=O)[nH]1", "note": "[guanosine]", "values": [{"measurement": "attenuation of amyloid-induced HSI spectral change", "setting": "[2]", "result": "attenuation of amyloid-induced HSI spectral change"}]}, {"molecule": "NC(N)=O", "note": "[urea]", "values": [{"measurement": "attenuation of amyloid-induced HSI spectral change", "setting": "[2]", "result": "attenuation of amyloid-induced HSI spectral change"}]}, {"molecule": "N[C@@H](CNC(=O)N[C@@H](CS)C(=O)NCC(=O)O)C(=O)O", "note": "[ψ-GSH]", "values": [{"measurement": "brain Aβ load", "setting": "[3]; i.p., versus untreated APP/PS1 mice", "result": "significantly lower Aβ load"}, {"measurement": "Aβ plaques in brain relative to controls", "setting": "[3]; orally treated APP/PS1 mice", "result": "modest decrease in Aβ plaques"}, {"measurement": "number and sizes of Aβ plaques in brain", "setting": "[3]; ψ-GSH treated group (i.p.)", "result": "drastically reduced"}, {"measurement": "spatial memory development and escape latencies relative to the saline-treated group", "setting": "[4]; APP/PS1 mice treated orally", "result": "did not reach statistical significance"}, {"measurement": "escape latency", "setting": "[4]; day 3, ψ-GSH treated mice (WT saline 17.29±2.13 s)", "result": "17.91 ± 4.65", "unit": "s"}, {"measurement": "escape latency", "setting": "[4]; day 4, ψ-GSH treated mice (WT saline 12.42±2.18 s)", "result": "14.64 ± 2.61", "unit": "s"}, {"measurement": "learned behavior during the first week of testing", "setting": "[4]; i.p.", "result": "significant learned behavior inculcation"}, {"measurement": "time in the target quadrant, probe trial", "setting": "[4]; i.p., untreated APP-PS1 16.39±3.39%, non-transgenic vehicle 36.67±5.30%", "result": "38.43±3.73", "unit": "%"}, {"measurement": "time in the target quadrant, probe trial", "setting": "[4]; orally treated APP/PS1 mice", "result": "21.76±5.36", "unit": "%"}, {"measurement": "retinal HSI spectra", "setting": "[5]; APP/PS1 mice treated orally", "result": "did not exhibit any differences from those of transgenic mice"}, {"measurement": "retinal HSI spectra", "setting": "[5]; APP/PS1 mice, ψ-GSH i.p. 12 weeks, after 2 months of treatment onward", "result": "tended toward those from normal mice"}]}, {"molecule": "Aβ^1-42: β-amyloid peptide purchased from American Peptide Company; FITC-labelled form used for cell uptake", "values": [{"measurement": "time at which transmitted light reaches its nadir", "setting": "[6]; 250 nM peptide, HSI spectra over time", "result": 48, "unit": "h"}, {"measurement": "HSI spectral change in the 400-1000 nm wavelength region", "setting": "[6]; SH-SY5Y cells, 0-1000 nM peptide", "result": "transmitted light shifts to lower values"}]}]}
